What was measured:
[1] = tested on: Alternaria solani; assay: Activity against tomato early blight (AS); assay type: in vivo; details: Table VI; tomato seedlings, contact prophylactic foliar spray, 4 days
Summary of the method: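 Plants were challenged with A. solani conidia (10^4 spores/ml) 24 h after a protective foliar spray of compound in 50:50 acetone/water plus 0.04% Tween 20. Held humid at 21° C for 4 days, then percent leaf area with lesions was scored as a rating relative to controls.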

[2] = tested on: Plasmopara viticola; assay: Antisporulant activity against vine downy mildew (PVA); assay type: in vivo; details: vine leaves, antisporulant foliar spray, 600 ppm, 750 l/ha
Summary of the method: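 Cabernet Sauvignon vines (~8 cm) inoculated on lower leaf surfaces with 5×10^4 zoosporangia/ml, held 24 h at 21° C high humidity then 24 h glasshouse. Infected leaves sprayed underside with 600 ppm compound in 1:1 water/acetone, 0.04% Tween 20, 750 l/ha; 96 h glasshouse, 24 h humidity. Sporulating leaf area rated versus control.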

[3] = tested on: Venturia inaequalis; assay: Activity against apple scab in-vitro (VII); assay type: cell-based; details: 10 ppm, 10 days, 20° C., mycelial growth
Summary of the method: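 V. inaequalis propagules (5×10^4/ml, malt agar-grown) were exposed in half-strength PDB to 10 ppm final test compound delivered in acetone. Growth was scored after incubation for 10 days at 20° C, as a rating relative to untreated or diluent-sprayed controls.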

[4] = tested on: Pseudocercosporella herpotrichoides; assay: Activity against wheat eyespot in-vitro (PHI); assay type: cell-based; details: 10 ppm, 10 days, 20° C., mycelial growth
Summary of the method: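 Mycelial growth was scored after 10 days at 20 °C against untreated or diluent controls. The broth was half-strength potato dextrose, holding 10 ppm test compound (from acetone) and 5×10^4 fragments/ml of the eyespot fungus.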

[5] = tested on: Leptosphaeria nodorum; assay: Activity against wheat leafspot (LN); assay type: in vivo; details: direct therapeutic foliar spray, 600 ppm, 6-8 days
Summary of the method: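 Therapeutic foliar spray: compound at 600 ppm applied to single-leaf wheat (cv Norman) 24 h after inoculation with 1.5×10^6 conidia/ml. Disease control scored after 6-8 days at 22° C and 70% humidity as lesions per leaf versus untreated or diluent-sprayed controls.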

[6] = tested on: Phytophthora infestans; assay type: in vivo; details: tomato, direct protectant foliar spray
[7] = tested on: Erysiphe graminis f.sp. hordei; assay: Activity against barley powdery mildew, direct therapeutic (EGT); assay type: in vivo; details: direct therapeutic foliar spray, 600 ppm, up to 7 days
Summary of the method: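 A curative spray at 600 ppm was applied to single-leaf Golden Promise barley inoculated with powdery mildew conidia the previous day. After up to 7 days at 18 °C and 40% humidity, disease control was rated from percent leaf area sporulating relative to untreated or diluent-sprayed controls.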

[8] = tested on: Rhizoctonia solani; assay: Activity against Rhizoctonia in-vitro (RSI); assay type: cell-based; details: 10 ppm, 10 days, 20° C., mycelial growth
Summary of the method: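 Compound at a final 10 ppm (acetone vehicle) in half-strength PDB, inoculated with 5×10^4 fragments/ml of shaken-culture R. solani mycelium. After incubation at 20° C for 10 days, growth scored as a rating versus untreated or diluent-treated controls.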

[9] = tested on: Botrytis cinerea; assay: Direct protectant activity against broad bean grey mould (BCB); assay type: in vivo; details: direct protectant foliar spray, 600 ppm, 4 days
Summary of the method: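 Protectant foliar test: lesion coverage assessed 4 days after inoculation and rated relative to untreated or diluent-sprayed plants. Compound applied at 600 ppm to cv The Sutton leaves 24 h before 10^6 conidia/ml suspension; incubation at 22 °C in high humidity.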

[10] = tested on: Pyricularia oryzae; assay type: in vivo; details: rice seedlings, direct therapeutic foliar spray, 600 ppm, 4-5 days
[11] = tested on: Erysiphe graminis f.sp. hordei; assay: Direct protectant activity against barley powdery mildew (EGP); assay type: in vivo; details: direct protectant foliar spray, 8 days
Summary of the method: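 Rating reflects percentage of leaf area with sporulation compared with untreated or diluent-sprayed controls. Protectant spray was applied to single-leaf barley (cv Golden Promise) 24 h before conidia inoculation. Plants were kept at 18 °C and 40% RH throughout, with 8 days of disease development.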

CC(C)(C)C1CCC2(CC1)CC(NCCC1=CCCCC1)CO2 (stereo not shown) [Compound 108]
1 (about 50-80% disease control): disease control rating VII [3] | disease control rating PHI [4] | disease control rating RSI [8]
2 (greater than 80% disease control): disease control rating PIP [6] | disease control rating EGT [7] | disease control rating BCB [9] | disease control rating EGP [11]
0 (less than 50% disease control): disease control rating AS [1] | disease control rating PVA [2] | disease control rating LN [5] | disease control rating PO [10]

CC(C)(C)C1CCC(NC2COC3(CCC(C(C)(C)C)CC3)C2)CC1 (stereo not shown) [Compound 109]
2 (greater than 80% disease control): disease control rating VII [3] | disease control rating PIP [6] | disease control rating EGT [7] | disease control rating BCB [9] | disease control rating EGP [11]
0 (less than 50% disease control): disease control rating PVA [2] | disease control rating LN [5] | disease control rating PO [10]
1 (about 50-80% disease control): disease control rating AS [1] | disease control rating PHI [4] | disease control rating RSI [8]

CC(C)CC(C)NC1COC2(CCC(C(C)(C)C)CC2)C1 (stereo not shown) [Compound 110]
2 (greater than 80% disease control): disease control rating PIP [6] | disease control rating EGT [7] | disease control rating EGP [11]
1 (about 50-80% disease control): disease control rating VII [3] | disease control rating PHI [4] | disease control rating RSI [8] | disease control rating BCB [9]
0 (less than 50% disease control): disease control rating AS [1] | disease control rating PVA [2] | disease control rating LN [5] | disease control rating PO [10]

CC(C)(C)CCNC1COC2(CCC(C(C)(C)C)CC2)C1 (stereo not shown) [Compound 111]
1 (about 50-80% disease control): disease control rating VII [3] | disease control rating RSI [8] | disease control rating BCB [9]
0 (less than 50% disease control): disease control rating AS [1] | disease control rating PVA [2] | disease control rating PHI [4] | disease control rating LN [5] | disease control rating PO [10]
2 (greater than 80% disease control): disease control rating PIP [6] | disease control rating EGT [7] | disease control rating EGP [11]

CCC(C)CC(C)NC1COC2(CCC(C(C)(C)C)CC2)C1 (stereo not shown) [Compound 112]
1 (about 50-80% disease control): disease control rating VII [3] | disease control rating PHI [4] | disease control rating RSI [8]
2 (greater than 80% disease control): disease control rating PIP [6] | disease control rating EGT [7] | disease control rating EGP [11]
0 (less than 50% disease control): disease control rating AS [1] | disease control rating PVA [2] | disease control rating LN [5] | disease control rating BCB [9] | disease control rating PO [10]

C1CCC2CN(C3COC4(C3)C3CC5CC(C3)CC4C5)CCC2C1 (stereo not shown) [Compound 113]
0 (less than 50% disease control): disease control rating AS [1] | disease control rating PVA [2] | disease control rating PHI [4] | disease control rating LN [5] | disease control rating EGT [7] | disease control rating RSI [8] | disease control rating PO [10]
1 (about 50-80% disease control): disease control rating VII [3] | disease control rating PIP [6] | disease control rating BCB [9] | disease control rating EGP [11]

CC(C)(C)C1CCC2(CC1)CC(N1CCc3ccccc3C1)CO2 (stereo not shown) [Compound 114]
0 (less than 50% disease control): disease control rating PVA [2] | disease control rating PHI [4] | disease control rating LN [5] | disease control rating RSI [8] | disease control rating PO [10]
1 (about 50-80% disease control): disease control rating AS [1] | disease control rating VII [3]
2 (greater than 80% disease control): disease control rating PIP [6] | disease control rating EGT [7] | disease control rating BCB [9] | disease control rating EGP [11]

CCCCCCCCNC1COC2(C1)C1CC3CC(C1)CC2C3 (stereo not shown) [Compound 115]
0 (less than 50% disease control): disease control rating AS [1] | disease control rating PVA [2] | disease control rating LN [5] | disease control rating RSI [8] | disease control rating BCB [9] | disease control rating PO [10]
2 (greater than 80% disease control): disease control rating VII [3] | disease control rating EGT [7] | disease control rating EGP [11]
1 (about 50-80% disease control): disease control rating PHI [4] | disease control rating PIP [6]

Source: patent US5591741A, “Fungicidal spiroheterocyclic derivatives” (American Cyanamid Company, priority 1993, dated 1997)
